From patent US20120196824A1, “THERAPEUTIC AGENT FOR CEREBRAL INFARCTION” (MITSUBISHI TANABE PHARMA CORPORATION, priority 2009, published 2012)
Counter-ions that a name gives are not always drawn.

System: homocysteine synthesis
Assay: Measurement of homocysteine synthesis inhibitory activity in vivo (methionine-loaded mouse, plasma homocysteine)
Conditions: dose of 10 mg/kg, oral, BALB/c mouse; methionine water 1 hr later; plasma 30 min after; read-out: activity (homocysteine synthesis inhibitory rate)
Protocol: A sample was orally administered to BALB/c mouse and, 1 hr later, methionine water (50 g/L) was orally administered at a proportion of 10 ml/kg. 30 min later, blood samples were collected with heparin from the abdominal vein and plasma was obtained. The plasma homocysteine concentration was measured by treating the plasma with tributylphosphine, removing protein with 10% trichloroacetic acid (TCA), fluorescent labeling the supernatant with 4-fluoro-7-sulfobenzofurazan ammonium salt (SBD-F) under alkali conditions, and quantifying by HPLC. The homocysteine synthesis inhibitory rate of the sample was determined with the difference in the homocysteine value between methionine water-loaded animal and methionine water-unloaded animal as 100%. The detailed conditions of HPLC were as follows.
column used: Wakopak^R HandyODS 150*4.6 mm (Wako Pure Chemical Industries, Ltd.) elution condition: 1.0 ml/min elution solvent: 0.1M phosphate buffer (pH 6.0) 2% methanol wavelength: ex 385 nm em 515 nm

| SMILES | inhibition in vivo at 10 mg/kg |
| --- | --- |
| CCNCCNC(=O)CN(CC(=O)N(C)N1Cc2ccccc2C1)c1cc(C(C)=O)ccc1C [57 (2HCl salt)] | ≥ 40% |
| Cc1nnc(-c2ccc(C)c(N(CC(=O)NCCNC(C)C)CC(=O)N(C)N3Cc4ccccc4C3)c2)s1 [Example 105, N^2-{2-[1,3-dihydro-2H-isoindol-2-yl(methyl)amino]-2-oxoethyl}-N^2-[2-methyl-5-(5-methyl-1,3,4-thiadiazol-2-yl)phenyl]-N^1-[2-(isopropylamino)ethyl]glycinamide dihydrochloride] | 20 to 40% |

Molecular target: T1, Human-recombinant-S-Adenosyl-L-Homocysteine Hydrolase (Homo sapiens, UniProt P23526)
T1 construct: purchased Diazyme Laboratories
Assay: Measurement of enzyme inhibitory activity (hydrolysis of S-Adenosyl-L-Homocysteine, HPLC)
Assay type: biochemical
Conditions: S-Adenosyl-L-Homocysteine 10 μM, pH 7.2, 37° C., 15 min
Protocol: The enzyme inhibitory activity of the compounds of the Examples was measured using the hydrolysis activity of S-Adenosyl-L-Homocysteine as an index. The measurement method was modification of the method of Henry H. Richards et al. (J. Biol. Chem. 253, 4476-4480, 1978). That is, S-Adenosyl-L-Homocysteine (10 μM) and Adenosine Deaminase (Roche) (4 units) were added to 50 mM phosphate buffer (pH 7.2, containing 1 mM EDTA) with the total amount being 200 μl, and to the solution were added a test substance and then Human-recombinant-S-Adenosyl-L-Homocysteine Hydrolase (50 ng, Diazyme Laboratories) to start the reaction, and the mixture was incubated at 37° C. for 15 min. The reaction was quenched by the addition of 1N aqueous perchloric solution (20 μl), and the mixture was centrifuged under the conditions of 10000 rpm, 5 min, 4° C. The supernatant was collected, and the amount of S-Adenosyl-L-Homocysteine after the reaction was quantified by HPLC. The column used was a reversed-phase column. The detailed conditions of HPLC were as follows.
column used: Wakopak^R HandyODS 150*4.6 mm (Wako Pure Chemical Industries, Ltd.) elution condition: 1.0 ml/min elution solvent: 0.1M acetate buffer (pH 4.0) containing 10 mM 1-heptanesulfonic acid containing 4% acetonitrile wavelength: 258 nm (UV) The inhibitory rate was determined with the amount of decrease in S-Adenosyl-L-Homocysteine before and after the reaction without using the test substance as 100%.
Inhibitory rate (%)={(amount of decrease of S-Adenosyl-L-Homocysteine in the presence of test substance)/(amount of decrease of S-Adenosyl-L-Homocysteine in the absence of test substance)}×100

T1 sequence (P23526 whole entry): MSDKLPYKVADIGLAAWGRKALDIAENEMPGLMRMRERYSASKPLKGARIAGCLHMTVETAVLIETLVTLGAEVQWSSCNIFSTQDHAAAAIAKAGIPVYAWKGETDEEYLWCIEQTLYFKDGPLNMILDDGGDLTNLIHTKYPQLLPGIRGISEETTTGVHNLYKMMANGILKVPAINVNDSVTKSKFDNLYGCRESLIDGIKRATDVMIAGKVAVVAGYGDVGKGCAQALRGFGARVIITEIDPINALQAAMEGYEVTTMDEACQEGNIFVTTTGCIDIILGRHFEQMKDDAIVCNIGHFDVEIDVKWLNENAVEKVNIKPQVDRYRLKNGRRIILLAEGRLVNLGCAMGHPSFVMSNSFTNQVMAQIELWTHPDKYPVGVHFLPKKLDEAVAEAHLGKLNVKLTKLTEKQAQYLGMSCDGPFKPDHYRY

| SMILES | IC50 |
| --- | --- |
| CCNCCNC(=O)CN(CC(=O)N(C)N1Cc2ccc(F)cc2C1)c1ccc(C(C)=O)cc1C [Example 211, N^2-(4-acetyl-2-methylphenyl)-N^2-{2-[(5-fluoro-1,3-dihydro-2H-isoindol-2-yl)(methyl)amino]-2-oxoethyl}-N^1-[2-(ethylamino)ethyl]glycinamide] | 51 nM |
| CCNCCNC(=O)CN(CC(=O)N(C)N1Cc2ccccc2C1)c1cc2c(cc1C)CCC2=O [Example 214, N^2-{2-[1,3-dihydro-2H-isoindol-2-yl(methyl)amino]-2-oxoethyl}-N^2-(6-methyl-3-oxo-2,3-dihydro-1H-inden-5-yl)-N^1-[2-(ethylamino)ethyl]glycinamide] | 23 nM |
| CCNCCNC(=O)CN(CC(=O)N(C)N1Cc2ccc(F)cc2C1)c1ccc(-c2nc(C)no2)cc1C [Example 231, N^2-{2-[(5-fluoro-1,3-dihydro-2H-isoindol-2-yl)(methyl)amino]-2-oxoethyl}-N^2-[2-methyl-4-(3-methyl-1,2,4-oxadiazol-5-yl)phenyl]-N^1-[2-(ethylamino)ethyl]glycinamide] | 46 nM |
| Cc1cc2c(cnn2C)cc1N(CC(=O)NCCNC(C)C)CC(=O)N(C)N1Cc2ccccc2C1 [Example 242, N^2-{2-[1,3-dihydro-2H-isoindol-2-yl(methyl)amino]-2-oxoethyl}-N^2-(1,6-dimethyl-1H-indazol-5-yl)-N^1-[2-(isopropylamino)ethyl]glycinamide hydrochloride] | 6 nM |
| CCNCCNC(=O)CN(CC(=O)N(C)N1Cc2ccccc2C1)c1cc2cn(C)nc2cc1C [Example 243, N^2-{2-[1,3-dihydro-2H-isoindol-2-yl(methyl)amino]-2-oxoethyl}-N^2-(2,6-dimethyl-2H-indazol-5-yl)-N^1-[2-(ethylamino)ethyl]glycinamide hydrochloride] | 7 nM |
| CCNCCNC(=O)CN(CC(=O)N(C)N1Cc2ccccc2C1)c1cc2cn(CC)nc2cc1C [Example 247, N^2-{2-[1,3-dihydro-2H-isoindol-2-yl(methyl)amino]-2-oxoethyl}-N^2-(2-ethyl-6-methyl-2H-indazol-5-yl)-N^1-[2-(ethylamino)ethyl]glycinamide hydrochloride] | 15 nM |
| CCNCCNC(=O)CN(CC(=O)N(C)N1Cc2ccccc2C1)c1cc2c(cc1C)CN(CC)C2=O [Example 284, N^2-{2-[1,3-dihydro-2H-isoindol-2-yl(methyl)amino]-2-oxoethyl}-N^2-(2-ethyl-6-methyl-3-oxo-2,3-dihydro-1H-isoindol-5-yl)-N^1-[2-(ethylamino)ethyl]glycinamide dihydrochloride] | 33 nM |
| CCNCCNC(=O)CN(CC(=O)N(C)N1Cc2ccccc2C1)c1cc(-c2noc(C(F)(F)F)n2)ccc1C [Example 287, N^2-{2-[1,3-dihydro-2H-isoindol-2-yl(methyl)amino]-2-oxoethyl}-N^2-{2-methyl-5-[5-(trifluoromethyl)-1,2,4-oxadiazol-3-yl]phenyl}-N^1-[2-(ethylamino)ethyl]glycinamide dihydrochloride] | 58 nM |
| CCNCCNC(=O)CN(CC(=O)N(C)N1Cc2ccccc2C1)c1ccc(-c2noc(C(F)(F)F)n2)cc1C [Example 289, N^2-{2-[1,3-dihydro-2H-isoindol-2-yl(methyl)amino]-2-oxoethyl}-N^2-{2-methyl-4-[5-(trifluoromethyl)-1,2,4-oxadiazol-3-yl]phenyl}-N^1-[2-(ethylamino)ethyl]glycinamide dihydrochloride] | 76 nM |
| CCNCCNC(=O)CN(CC(=O)N(C)N1Cc2ccccc2C1)c1ccc(-c2ccc(C(N)=O)cn2)cc1C [Example 301, N^2-{4-[5-(aminocarbonyl)pyridin-2-yl]-2-methylphenyl}-N^2-{2-[1,3-dihydro-2H-isoindol-2-yl(methyl)amino]-2-oxoethyl}-N^1-[2-(ethylamino)ethyl]glycinamide dihydrochloride] | 37 nM |
| CCNCCNC(=O)CN(CC(=O)N(C)N1Cc2ccc(F)cc2C1)c1ccc(-c2nc(C(N)=O)cs2)cc1C [Example 308, N^2-{4-[4-(aminocarbonyl)-1,3-thiazol-2-yl]-2-methylphenyl}-N^2-{2-[(5-fluoro-1,3-dihydro-2H-isoindol-2-yl)(methyl)amino]-2-oxoethyl}-N^1-[2-(ethylamino)ethyl]glycinamide dihydrochloride] | 26 nM |

Now from value to compound:

| IC50 | SMILES |
| --- | --- |
| 150 nM | Cc1cc2onc(C)c2cc1N(CC(=O)NC[C@@H]1CCCN1)CC(=O)N(C)N1Cc2ccccc2C1 [Example 328, N^2-{2-[1,3-dihydro-2H-isoindol-2-yl(methyl)amino]-2-oxoethyl}-N^2-(3,6-dimethyl-1,2-benzisoxazol-5-yl)-N^1-[(2S)-pyrrolidin-2-ylmethyl]glycinamide dihydrochloride] |
| 66 nM | CCNCCNC(=O)CN(CC(=O)N(C)N1Cc2ccc(F)cc2C1)c1cc2c(cc1C)c(CC)nn2CC(F)F [Example 279, N^2-[1-(2,2-difluoroethyl)-3-ethyl-5-methyl-1H-indazol-6-yl]-N^2-{2-[(5-fluoro-1,3-dihydro-2H-isoindol-2-yl)(methyl)amino]-2-oxoethyl}-N^1-[2-(ethylamino)ethyl]glycinamide hydrochloride] |
| 50 nM | CCNCCNC(=O)CN(CC(=O)N(C)N1Cc2ccccc2C1)c1ccc(N2CCCC2=O)cc1C [Example 298, N^2-{2-[1,3-dihydro-2H-isoindol-2-yl(methyl)amino]-2-oxoethyl}-N^2-[2-methyl-4-(2-oxopyrrolidin-1-yl)phenyl]-N^1-[2-(ethylamino)ethyl]glycinamide dihydrochloride] |
| 47 nM | CCNCCNC(=O)CN(CC(=O)N(C)N1Cc2ccc(F)cc2C1)c1cc2c(C)nn(C)c2cc1C [Example 256, N^2-{2-[(5-fluoro-1,3-dihydro-2H-isoindol-2-yl)(methyl)amino]-2-oxoethyl}-N^2-(1,3,6-trimethyl-1H-indazol-5-yl)-N^1-[2-(ethylamino)ethyl]glycinamide hydrochloride] |
| 41 nM | CCNCCNC(=O)CN(CC(=O)N(C)N1Cc2ccccc2C1)c1ccc(-n2cc(C(N)=O)cn2)cc1C [Example 303, N^2-{4-[4-(aminocarbonyl)-1H-pyrazol-1-yl]-2-methylphenyl}-N^2-{2-[1,3-dihydro-2H-isoindol-2-yl(methyl)amino]-2-oxoethyl}-N^1-[2-(ethylamino)ethyl]glycinamide dihydrochloride] |
| 33 nM | CCNCCNC(=O)CN(CC(=O)N(C)N1Cc2cccc(F)c2C1)c1cc2c(cc1C)CCC2=O [Example 216, N^2-{2-[(4-fluoro-1,3-dihydro-2H-isoindol-2-yl)(methyl)amino]-2-oxoethyl}-N^2-(6-methyl-3-oxo-2,3-dihydro-1H-inden-5-yl)-N^1-[2-(ethylamino)ethyl]glycinamide] |
| 30 nM | CCNCCNC(=O)CN(CC(=O)N(C)N1Cc2ccc(F)cc2C1)c1cc2c(cnn2C)cc1C [Example 259, N^2-(1,5-dimethyl-1H-indazol-6-yl)-N^2-{2-[(5-fluoro-1,3-dihydro-2H-isoindol-2-yl)(methyl)amino]-2-oxoethyl}-N^1-[2-(ethylamino)ethyl]glycinamide hydrochloride] |
| 23 nM | CCNCCNC(=O)CN(CC(=O)N(C)N1Cc2ccccc2C1)c1ccc(-c2nc(C(N)=O)co2)cc1C [Example 309, N^2-{4-[4-(aminocarbonyl)-1,3-oxazol-2-yl]-2-methylphenyl}-N^2-{2-[1,3-dihydro-2H-isoindol-2-yl(methyl)amino]-2-oxoethyl}-N^1-[2-(ethylamino)ethyl]glycinamide dihydrochloride] |
